From US12601016B2, “Genetically encoded fluorescent indicators under optogenetic control and uses thereof” (LUMISTAR BIOTECHNOLOGY, INC., priority 2018, dated 2026)

Columns and labels:
HL-1 cells = assay: Pharmacological stimulation by caffeine in HL-1 cells imaged using NIR-GECO1; type: cell-based, mouse; conditions: 10 mM caffeine
Protocol: (§1) Representative time courses of Ca^2+ influx influenced by pharmacological stimulations of caffeine (10 mM). Spontaneous calcium oscillations were also able to be observed before applications of caffeine.
NIR-GECO1 and NIR-GECO2 were then tested for its performance in cardiovascular research. In one aspect of the present invention, a cell culture of stable immortalized cell lines, known as the HL-1 cell line, derived from mouse atrial cardiomyocytes is used as a model.
(§2) With reference to FIG. 8, NIR-GECO1 expressed in HL-1 (A) and iPSC-CMs (B), and NIR-GECO2 expressed in iPSC-CMs (C) were tested for pharmacological stimulation.
To culture the HL-1 cell line, flasks were pre-coated with gelatin/fibronectin at 37° C. overnight. […]
(§3) An inverted microscope (D1, Zeiss) equipped with a 63× objective lens (NA 1.4, Zeiss) and a multiwavelength LED light source (pE-4000, CoolLED) was used. […] The filter set (T685lpxr dichroic mirror, and ET720/60 emission filter) was used to stimulate ChR2 and to acquire fluorescence imaging of NIR-GECO1. […] Fluorescence signals were recorded by a CMOS camera (ORCA-Flash4.0LT, HAMAMATSU) and controlled by a HC Image software.

iPSC-CMs [1] = assay: Pharmacological stimulation by caffeine in iPSC-CMs imaged using NIR-GECO1 or NIR-GECO2; type: cell-based, human; conditions: 10 mM caffeine
Protocol: as §1, §2
Human iPSC-derived cardiomyocytes (Human iPSC Cardiomyocytes[…]|ax2505) were purchased from Axol Bioscience. The cells were plated in two wells of a 6-well plate and cultured for eight days in Axol's Cardiomyocyte Maintenance Medium to 80-90% confluency. Cells then were re-plated on Fibronectin/Gelatin (0.5%/0.1%) coated glass bottom dishes for final observation with Tyrode's buffer. […]
as §3

[2] = system: voltage-gated L-type calcium channels; assay: L-type calcium channel inhibitors applied to iPSC-CMs, optically paced Ca^2+ transients imaged using K-GECO1 with ChR2; type: cell-based, human; conditions: 1 μM; 470-nm pulses of 40 ms at 0.3 Hz
Excerpt: (A) A representative time course of spontaneous Ca^2+ oscillations in iPSC-CMs as imaged using K-GECO1. (B) Photoactivation of R-GECO1 and (C) K-GECO1 in iPSC-CMs. Cells with and without spontaneous activities are shown in trace (i) and (ii), respectively. (D) Combined use of K-GECO1 and channelrhodopsin-2 (ChR2) in iPSC-CMs for all-optical control and observation of Ca^2+ transients. Illumination with 470-nm light at a pulse duration of 150 ms for optical control is indicated by arrowheads. (E) Small molecular inhibitors of the voltage-gated L-type calcium channels were applied to iPSC-CMs. iPSC-CMs were plated out at low density and exposed to clinically relevant doses of 100 nM and 1 μM for nifedipine and verapamil, respectively. Traces were obtained with optical stimulation by 470-nm light at a pulse duration of 40 ms at 0.3 Hz. […]
An inverted microscope (D1, Zeiss) equipped with a 63× objective lens (NA 1.4, Zeiss) and a multiwavelength LED light source (pE-4000, CoolLED) was used. […] The filter set (Q565lp dichroic mirror, and HQ620/60 emission filter) was used to stimulate ChR2 and to acquire fluorescence imaging of K-GECO1 or R-GECO1. […] Fluorescence signals were recorded using a CMOS camera (ORCA-Flash4.0LT, HAMAMATSU) controlled by a HC Image software.

[3] = Ca^2+ titration of purified NIR-GECO variants (EGTA-buffered Ca^2+ solutions); type: binding; conditions: Ca^2+ titration of purified protein, 25° C.; read-out: apparent Kd
Excerpt: (§4) NIR-GECO1 is a near infrared indicator and is engineered from a naturally-monomeric infrared fluorescent proteins (mIFP). NIR-GECO1 has absorbance and emission peaks at 678 and 704 nm, respectively, and undergoes a 90% decrease in fluorescence intensity upon binding Ca^2+, serving as an inverse response indicator contrast to K-GECO1, as shown in FIG. 2B.
To purify NIR-GECO variants for in vitro characterization, the gene encoding variants of interest with a poly-histidine tag on the C terminus, was expressed from the pBAD vector. Bacteria were lysed with a cell disruptor (Constant Systems Ltd) and then centrifuged at 15,000 g for 30 min, and proteins were purified by Ni-NTA affinity chromatography (Agarose Bead Technologies). The buffer was typically exchanged to 10 mM MOPS, 100 mM KCl (pH 7.2) with centrifugal concentrators (GE Healthcare Life Sciences).
Ca^2+ titrations were carried out using EGTA-buffered Ca^2+ solutions (Calcium Calibration Buffer Kit no. 1, Life Technologies). We prepared buffers by mixing a CaEGTA buffer (30 mM MOPS, 100 mM KCl, 10 mM EGTA, 10 mM CaCl2) and an EGTA buffer (30 mM MOPS, 100 mM KCl, 10 mM EGTA) to give free Ca^2+ concentrations ranging from 0 to 39 μM at 25° C. Fluorescence intensities were plotted against Ca^2+ concentrations and fitted by a sigmoidal binding function to determine the Hill coefficient and Kd.

[4] = In vitro fluorescence characterization of purified NIR-GECO1; type: physicochemical; conditions: inverse response indicator
Excerpt: as §4
To purify NIR-GECO variants for in vitro characterization, the gene encoding variants of interest with a poly-histidine tag on the C terminus, was expressed from the pBAD vector. Bacteria were lysed with a cell disruptor (Constant Systems Ltd) and then centrifuged at 15,000 g for 30 min, and proteins were purified by Ni-NTA affinity chromatography (Agarose Bead Technologies). […]
The extinction coefficients were determined by comparing the absorbance value at 678 nm to the absorbance value at the 391 nm and assuming an extinction coefficient of 39,900 M^− cm^− at 391 nm. […] The concentration of NIR-GECO variants (Ca^2+-free), NIR-GECO variants (Ca^2+-saturated) and mIFP was adjusted to have absorbance of 0.2-0.6 at 650 nm. A series of dilutions, with absorbance ranging from 0.01 to 0.05, were prepared, and integrated emission intensity versus absorbance was plotted. Quantum yields were determined from the slopes (S) of each line using the equation Φprotein=Φstandard*(Sprotein/Sstandard).

iPSC-CMs [5] = assay: Blue-light photoactivation testing of GECIs expressed in iPSC-CMs; type: cell-based, human; conditions: 0.19 W/cm^2 of 470-nm LED light
Excerpt: (A) A representative time course of spontaneous Ca^2+ oscillations in iPSC-CMs as imaged using K-GECO1. (B) Photoactivation of R-GECO1 and (C) K-GECO1 in iPSC-CMs. Cells with and without spontaneous activities are shown in trace (i) and (ii), respectively. (D) Combined use of K-GECO1 and channelrhodopsin-2 (ChR2) in iPSC-CMs for all-optical control and observation of Ca^2+ transients. Illumination with 470-nm light at a pulse duration of 150 ms for optical control is indicated by arrowheads. (E) Small molecular inhibitors of the voltage-gated L-type calcium channels were applied to iPSC-CMs. iPSC-CMs were plated out at low density and exposed to clinically relevant doses of 100 nM and 1 μM for nifedipine and verapamil, respectively. Traces were obtained with optical stimulation by 470-nm light at a pulse duration of 40 ms at 0.3 Hz.
FIG. 7. Examination of photoactivation effects of NIR-GECO1 and NIR-GECO2 expressed in iPSC-CMs. […]
An inverted microscope (D1, Zeiss) equipped with a 63× objective lens (NA 1.4, Zeiss) and a multiwavelength LED light source (pE-4000, CoolLED) was used. […] The filter set (Q565lp dichroic mirror, and HQ620/60 emission filter) was used to stimulate ChR2 and to acquire fluorescence imaging of K-GECO1 or R-GECO1. […] Fluorescence signals were recorded using a CMOS camera (ORCA-Flash4.0LT, HAMAMATSU) controlled by a HC Image software. […]

Cn1c(=O)c2c(ncn2C)n(C)c1=O [caffeine]
fluorescence intensity change (inverse indicator: increase in cytosolic Ca^2+ concentration) (HL-1 cells): significant decreases in fluorescence intensities
fluorescence intensity change (inverse indicator: increase in cytosolic Ca^2+ concentration) (iPSC-CMs [1]): significant decreases in fluorescence intensities

COc1ccc(CCN(C)CCCC(C#N)(c2ccc(OC)c(OC)c2)C(C)C)cc1OC (centres unmarked) [verapamil]
effect on triggered intensity change as imaged using K-GECO1 [2]: suppress the triggered intensity change

NIR-GECO1: near infrared genetically encoded Ca^2+ indicator engineered from monomeric infrared fluorescent protein mIFP (SEQ ID NO. 6)
Kd [3]: 215 nM
decrease in fluorescence intensity upon binding Ca^2+ [4]: 90%
photoactivation: changes in fluorescence intensity under illumination (iPSC-CMs [5]; pulse duration 40 ms): no significant changes in fluorescence intensity

NIR-GECO2: near infrared Ca^2+ indicator sharing 99% sequence identity with NIR-GECO1 (SEQ ID NO. 7)
Kd [3]: 480 nM
photoactivation: changes in fluorescence intensity under illumination (iPSC-CMs [5]; pulse duration 100 ms): no significant changes in fluorescence intensity
